In PubChem BioAssay AID256 (DTP/NCI, 2004):
“And” between values parts separate entries of the source, which are not always exact repeats. Equal values may be shown once. Inconclusive results and toxic doses are left out. Rule for the calls: active = survival T/C of 150% or more; inactive = T/C below 125% in these data.

System: CD2F1 mice, L1210 leukemia ip, survival T/C
Experiment: NCI In Vivo Anticancer Drug Screen. Data for tumor model L1210 Leukemia (intraperitoneal) in CD2F1 (CDF1) mice
Details: endpoint: mean survival time, higher = longer survival
Summary of the method: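 Ratio T/C, where T is the treated-group value and C the vehicle-dosed control value, from mice implanted with a transplantable tumor.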

[1] = dose: 100.0 mg/kg/injection, schedule: Q04DX003 (ip), vehicle: saline with Tween-80
[2] = dose: 200.0 mg/kg/injection, schedule: Q04DX003 (ip), vehicle: saline with Tween-80
[3] = dose: 400.0 mg/kg/injection, schedule: Q04DX003 (ip), vehicle: saline with Tween-80
[4] = dose: 100.0 mg/kg/injection, schedule: Q01DX009 (ip), vehicle: saline with Tween-80
[5] = dose: 200.0 mg/kg/injection, schedule: Q01DX009 (ip), vehicle: saline with Tween-80
[6] = dose: 400.0 mg/kg/injection, schedule: Q01DX009 (ip), vehicle: saline with Tween-80
[7] = dose: 50.0 mg/kg/injection, schedule: Q01DX009 (ip), vehicle: saline with Tween-80
[8] = dose: 100.0 mg/kg/injection, schedule: Q04DX003 (ip), vehicle: saline
[9] = dose: 100.0 mg/kg/injection, schedule: Q01DX009 (ip), vehicle: saline sonified
[10] = dose: 200.0 mg/kg/injection, schedule: Q01DX009 (ip), vehicle: saline sonified
[11] = dose: 400.0 mg/kg/injection, schedule: Q01DX009 (ip), vehicle: saline sonified
[12] = dose: 50.0 mg/kg/injection, schedule: Q04DX003 (ip), vehicle: saline with Tween-80
[13] = dose: 12.5 mg/kg/injection, schedule: Q01DX009 (ip), vehicle: saline with Tween-80

Measured: T/C

O=C(COc1ccccc1)Nc1ccc([N+](=O)[O-])cc1
inactive: [1] 100 % of control | [2] 99 % of control | [3] 100 % of control

O=C1C(n2ccc(=O)[nH]c2=O)CCN1CCO (centres undefined)
inactive: dose: 100.0 mg/kg/injection, schedule: Q04DX003 (ip), vehicle: other 102 % of control | dose: 200.0 mg/kg/injection, schedule: Q04DX003 (ip), vehicle: other 102 % of control | dose: 400.0 mg/kg/injection, schedule: Q04DX003 (ip), vehicle: other 96 % of control

OCc1c(Cl)cccc1Cl
inactive: dose: 100.0 mg/kg/injection, schedule: Q01DX001 (ip), vehicle: saline with Tween-80 104 % of control | [4] 96 % of control and 102 % of control | dose: 100.0 mg/kg/injection, schedule: Q04DX002 (ip), vehicle: saline with Tween-80 97 % of control and 105 % of control | [1] 103 % of control | dose: 200.0 mg/kg/injection, schedule: Q01DX001 (ip), vehicle: saline with Tween-80 102 % of control | [5] 95 % of control and 96 % of control | dose: 200.0 mg/kg/injection, schedule: Q04DX002 (ip), vehicle: saline with Tween-80 97 % of control and 112 % of control | [2] 113 % of control | dose: 400.0 mg/kg/injection, schedule: Q01DX001 (ip), vehicle: saline with Tween-80 107 % of control | [6] 101 % of control and 104 % of control | dose: 400.0 mg/kg/injection, schedule: Q04DX002 (ip), vehicle: saline with Tween-80 101 % of control and 109 % of control | [3] 103 % of control

O=C(O)Cc1ccccc1C(=O)O.[Pb]
inactive: [7] 102 % of control | [4] 102 % of control | [1] 93 % of control | [2] 98 % of control

NC(=O)OCCc1ccccc1
inactive: dose: 100.0 mg/kg/injection, schedule: Q04DX003 (ip), vehicle: Klucel (hydroxypropylcellulose) (HPC) 94 % of control | dose: 200.0 mg/kg/injection, schedule: Q04DX003 (ip), vehicle: Klucel (hydroxypropylcellulose) (HPC) 102 % of control

C[N+](C)(C)c1cc2c(nn1)Nc1ccccc1S2
inactive: dose: 3.12 mg/kg/injection, schedule: Q01DX009 (ip), vehicle: Klucel (hydroxypropylcellulose) (HPC) 97 % of control and 100 % of control | dose: 6.25 mg/kg/injection, schedule: Q01DX009 (ip), vehicle: Klucel (hydroxypropylcellulose) (HPC) 102 % of control and 103 % of control | dose: 12.5 mg/kg/injection, schedule: Q01DX009 (ip), vehicle: Klucel (hydroxypropylcellulose) (HPC) 87 % of control and 100 % of control | dose: 25.0 mg/kg/injection, schedule: Q01DX009 (ip), vehicle: Klucel (hydroxypropylcellulose) (HPC) 102 % of control and 103 % of control | dose: 25.0 mg/kg/injection, schedule: Q04DX003 (ip), vehicle: saline 111 % of control | dose: 50.0 mg/kg/injection, schedule: Q01DX009 (ip), vehicle: Klucel (hydroxypropylcellulose) (HPC) 94 % of control and 100 % of control | dose: 50.0 mg/kg/injection, schedule: Q04DX003 (ip), vehicle: saline 117 % of control | dose: 100.0 mg/kg/injection, schedule: Q01DX009 (ip), vehicle: Klucel (hydroxypropylcellulose) (HPC) 96 % of control and 103 % of control | [8] 109 % of control

C1C[N-]CC[N-]CC[N-]CC[N-]1.[Cl][Rh][Cl]
inactive: dose: 1.56 mg/kg/injection, schedule: Q01DX009 (ip), vehicle: saline 100 % of control | dose: 3.13 mg/kg/injection, schedule: Q01DX009 (ip), vehicle: saline 102 % of control | dose: 6.25 mg/kg/injection, schedule: Q01DX009 (ip), vehicle: saline 100 % of control | dose: 12.5 mg/kg/injection, schedule: Q01DX009 (ip), vehicle: saline 98 % of control and 108 % of control

OC1CNCc2cc3c(cc21)OCO3 (centres undefined)
inactive: dose: 100.0 mg/kg/injection, schedule: Q01DX001 (ip), vehicle: saline 107 % of control | dose: 200.0 mg/kg/injection, schedule: Q01DX001 (ip), vehicle: saline 104 % of control

O=C1NC(c2ccccc2)C([N+](=O)[O-])=C1O (centres undefined)
inactive: [9] 101 % of control | [4] 101 % of control | [10] 98 % of control | [5] 95 % of control | [11] 102 % of control | [6] 97 % of control

CC(C)(C)OC(=O)CCC(NC(=O)OCc1ccccc1)C(=O)O (centres undefined)
inactive: [12] 93 % of control | dose: 100.0 mg/kg/injection, schedule: Q01DX001 (ip), vehicle: saline sonified 103 % of control | [1] 94 % of control | dose: 200.0 mg/kg/injection, schedule: Q01DX001 (ip), vehicle: saline sonified 109 % of control

CN1CCc2[nH]c3ccccc3c2C1
inactive: dose: 75.0 mg/kg/injection, schedule: Q01DX001 (ip), vehicle: other 93 % of control | dose: 100.0 mg/kg/injection, schedule: Q04DX002 (ip), vehicle: Klucel (hydroxypropylcellulose) (HPC) 95 % of control | dose: 150.0 mg/kg/injection, schedule: Q01DX001 (ip), vehicle: other 93 % of control | dose: 200.0 mg/kg/injection, schedule: Q04DX002 (ip), vehicle: Klucel (hydroxypropylcellulose) (HPC) 103 % of control

CNC(=O)OC
inactive: [8] 102 % of control | dose: 200.0 mg/kg/injection, schedule: Q04DX003 (ip), vehicle: saline 110 % of control | dose: 400.0 mg/kg/injection, schedule: Q04DX003 (ip), vehicle: saline 108 % of control

O=C(NC(Cc1ccccc1)C(=O)CCl)OCc1ccccc1 (centres undefined)
inactive: dose: 25.0 mg/kg/injection, schedule: Q04DX003 (ip), vehicle: saline with Tween-80 97 % of control | [12] 100 % of control | [1] 109 % of control

CC(=[N-])CC(C)=O.CC(=[N-])CC(C)=O.[Cu+2]
inactive: dose: 3.13 mg/kg/injection, schedule: Q01DX009 (ip), vehicle: saline with Tween-80 100 % of control | dose: 6.25 mg/kg/injection, schedule: Q01DX009 (ip), vehicle: saline with Tween-80 95 % of control | [13] 90 % of control

CC(=O)NC(C)C(=O)NC1C(C)OC(=O)C2=C(O)CC(O)C(O)C21 (centres undefined)
inactive: [1] 92 % of control | [2] 100 % of control | [3] 97 % of control

COC(=O)c1ccc(SCC2=Nc3c(nc(N)[nH]c3=O)NCC2)cc1
inactive: dose: 0.38 mg/kg/injection, schedule: Q01DX009 (ip), vehicle: distilled water + Tween-80 100 % of control | dose: 0.75 mg/kg/injection, schedule: Q01DX009 (ip), vehicle: distilled water + Tween-80 101 % of control | dose: 1.5 mg/kg/injection, schedule: Q01DX009 (ip), vehicle: distilled water + Tween-80 105 % of control | dose: 3.0 mg/kg/injection, schedule: Q01DX009 (ip), vehicle: distilled water + Tween-80 100 % of control | dose: 6.0 mg/kg/injection, schedule: Q01DX009 (ip), vehicle: distilled water + Tween-80 101 % of control | dose: 12.0 mg/kg/injection, schedule: Q01DX009 (ip), vehicle: distilled water + Tween-80 93 % of control | dose: 48.0 mg/kg/injection, schedule: Q01DX009 (ip), vehicle: distilled water + Tween-80 88 % of control

Nc1ccc(OCc2ccc(C(=O)Nc3cccc(S(=O)(=O)F)c3)cc2)c(Cl)c1
inactive: [9] 91 % of control | [10] 95 % of control | [11] 93 % of control

C=CCC(C(=O)OC)(C(=O)OC)c1ccc(OC)c(OC)c1
inactive: dose: 75.0 mg/kg/injection, schedule: Q01DX001 (ip), vehicle: saline 100 % of control | dose: 150.0 mg/kg/injection, schedule: Q01DX001 (ip), vehicle: saline 96 % of control | dose: 300.0 mg/kg/injection, schedule: Q01DX001 (ip), vehicle: saline 98 % of control

OCc1ccc2[n+](c1)CCc1c-2[nH]c2ccccc12
inactive: dose: 12.5 mg/kg/injection, schedule: Q01DX001 (ip), vehicle: saline with Tween-80 96 % of control | [13] 98 % of control | dose: 25.0 mg/kg/injection, schedule: Q01DX001 (ip), vehicle: saline with Tween-80 101 % of control | dose: 25.0 mg/kg/injection, schedule: Q01DX009 (ip), vehicle: saline with Tween-80 94 % of control | dose: 50.0 mg/kg/injection, schedule: Q01DX001 (ip), vehicle: saline with Tween-80 101 % of control | [7] 100 % of control

NCc1cn(C2OC(CO)C(O)C2O)c2nc[nH]c(=O)c12 (centres undefined)
inactive: dose: 25.0 mg/kg/injection, schedule: Q01DX009 (ip), vehicle: distilled water + Tween-80 103 % of control | dose: 50.0 mg/kg/injection, schedule: Q01DX009 (ip), vehicle: distilled water + Tween-80 103 % of control | dose: 100.0 mg/kg/injection, schedule: Q01DX009 (ip), vehicle: distilled water + Tween-80 101 % of control | dose: 200.0 mg/kg/injection, schedule: Q01DX009 (ip), vehicle: distilled water + Tween-80 98 % of control | dose: 400.0 mg/kg/injection, schedule: Q01DX009 (ip), vehicle: distilled water + Tween-80 115 % of control
